The values that follow come from patent US7649010B2, “Carvedilol hydrobromide” (SmithKline Beechman Cork Limited, priority 2002, dated 2010).

One data set relates to α-adrenergic. The conditions noted are these: cited from earlier work.
Data set [1] is described as follows: pKa of the α-hydroxyl secondary amine functional group. The format is physicochemical. From the text:
(§1) At lower pH values (i.e., at a pH of 1 to 4 in various buffer systems), solubility of carvedilol is limited by the solubility of its protonated form or its corresponding salt formed in-situ.

A short description of another data set: physchem. The following applies: thermodynamic from solid.
From the text: as §1

A short description of data set [2]: aqueous solubility of the crystalline salt compared with free base and other salts. It is filed as physicochemical.
The nature of data set [3]: solubility of the in-situ salt in acidic medium (simulated gastric fluid). It is filed as physicochemical. The following applies: generated in-situ in an acidic medium, such as simulated gastric fluid.
For a further data set, the system named is β-adrenoreceptor. The conditions noted are these: cited from earlier work.

Each structure is given as a SMILES string. Converted amounts (≈) assume the structure as drawn. Structures can show the parent of a compound that is named as a salt.

On to `COc1ccccc1OCCNC[C@@H](O)COc1cccc2[nH]c3ccccc3c12` (single isomer, unassigned) [R(+) enantiomer], for which the α-adrenergic blocking activity entry with α-adrenergic is “exhibited”.

Regarding `COc1ccccc1OCCNCC(O)COc1cccc2[nH]c3ccccc3c12` (racemic) [Carvedilol], in data set [1], the pKa was 7.8. The solubility is about 100 µg/mL (≈ 246 µM) in the data set “physchem” (pH 5, aqueous buffer); about 23 µg/mL (≈ 56.6 µM) in “physchem” (pH 7, aqueous buffer); under 1 µg/mL in “physchem” (pH 9, aqueous buffer).

As for `COc1ccccc1OCCNCC(O)COc1cccc2[nH]c3ccccc3c12` (stereo not shown) [carvedilol hydrobromide], the “solubility compared to the free base of carvedilol” value in data set [2] (novel crystalline form) is “much higher solubility”. Besides, the “aqueous solubility relative to free base or other crystalline salts (hydrochloride)” value in data set [2] (pure crystalline solid) is “much higher aqueous solubility”.

For the molecule `COc1ccccc1OCCNCC(O)COc1cccc2[nH]c3ccccc3c12.Cl` (stereo not shown) [hydrochloride salt of carvedilol], the “solubility relative to the protonated form of carvedilol” value in data set [3] is “less soluble”.

In the case of `COc1ccccc1OCCNC[C@H](O)COc1cccc2[nH]c3ccccc3c12` (single isomer, unassigned) [S(−) enantiomer], the “nonselective β-adrenoreceptor blocking activity” value in the data set with β-adrenoreceptor is “exhibited”. Moreover, in the data set with α-adrenergic, the α-adrenergic blocking activity result is given as “exhibited”.
